Measured values as given in paper PMC3637257, “A Novel Anti-Tumor Inhibitor Identified by Virtual Screen with PLK1 Structure and Zebrafish Assay” (PLoS ONE, 2013).

What follows are compounds tested on PC-3 (assay: cells). Details: Homo sapiens, PC-3, 72 h; read-out: IC50 inhibiting PC-3.
Parameters: MTS cell viability / proliferation assay of PC-3 prostate cancer cells
Experimental: Fifteen human cancer cell lines were tested in our studies. Initial screens used human lung cancer cell A549, human epithelial cervical cancer Hela cells, human prostate cancer PC-3 cells, human epidermoid cancer KB-31 cells, human breast cancer MDA-MB-231 cells, and human pancreatic cancer HPAF. These cell lines were obtained commercially from ATCC. The first six cell cultures were maintained in 75 cm^2 cell culture flasks in which the cells were passaged at 70–80% confluence every 2–3 days. All cancer cells were cultured in RPMI 1640 containing 10% fetal calf serum, 100 U/mL penicillin, 100 µg/mL streptomycin, and 2 mM L-lutamine (complete RPMI medium). All cancer cells were plated at 1×10^4 cells per well in a 96 well plate. Drugs of different concentrations were then added. MTS assays (CellTiter 96® AQueous One Solution Cell Proliferation Assay, Promega) were performed after 72 h post treatment to determine the cell viability following drug administration.

SMILES	IC50 [µM]
COc1ccc2nc(SCC(=O)Nc3nccs3)c(C#N)cc2c1 [5j]	10
N#Cc1cc2cc(Cl)ccc2nc1SCC(=O)Nc1ccccc1C(F)(F)F [5p]	10
N#Cc1cc2cc(Br)ccc2nc1SCC(=O)Nc1ccccc1C(F)(F)F [5t]	50
COc1ccc2nc(SCC(=O)Nc3ccccn3)c(C#N)cc2c1 [5f]	10
COc1ccc(C)cc1NC(=O)CSc1nc2ccc(Cl)cc2cc1C#N [5o]	20
COc1ccc2nc(SCC(=O)Nc3ccccc3O)c(C#N)cc2c1 [5k]	30
COc1ccc2nc(SCC(=O)Nc3cc(C(F)(F)F)ccc3C(F)(F)F)c(C#N)cc2c1 [5i]	20
COc1ccc2nc(SCC(=O)Nc3ccccc3Cl)c(C#N)cc2c1 [5e]	10
COc1ccc(C)cc1NC(=O)CSc1nc2ccc(Br)cc2cc1C#N [5s]	40
COc1ccc(OC)c(NC(=O)CSc2nc3ccc(OC)cc3cc2C#N)c1 [5c]	10
COc1ccc2nc(SCC(=O)Nc3ccccc3OC)c(C#N)cc2c1 [5a]	40
Cc1ccc2nc(SCC(=O)Nc3ccccc3C(F)(F)F)c(C#N)cc2c1 [5r]	40
COc1ccc2nc(SCC(=O)Nc3cnccn3)c(C#N)cc2c1 [5h]	10
COc1ccc2nc(SCC(=O)Nc3ccc(Cl)cc3Cl)c(C#N)cc2c1 [5l]	10
COc1ccc2nc(SCC(=O)Nc3ccc(Cl)cn3)c(C#N)cc2c1 [5g]	10
COc1ccc2nc(SCC(=O)Nc3cc(Cl)ccc3OC)c(C#N)cc2c1 [5b]	10
COc1ccc2nc(SCC(=O)Nc3ccccc3Br)c(C#N)cc2c1 [5d]	10
COc1ccc2nc(SCC(=O)Nc3ccc(N(C)C)cc3)c(C#N)cc2c1 [5n]	10
COc1ccc2nc(SCC(=O)Nc3cc(C)ccc3OC)c(C#N)cc2c1 [I2]	1
COc1ccc(C)cc1NC(=O)CSc1nc2ccc(C)cc2cc1C#N [5q]	20
CCc1cccc(CC)c1NC(=O)CSc1nc2ccc(OC)cc2cc1C#N [5m]	20
